# Reference: US20170190671A1, “BIS(ARYL)CATECHOL DERIVATIVES AS HERBICIDES” (E I DU PONT DE NEMOURS AND COMPANY, priority 2014, published 2017)
# Legend:
# [1] = tested on: galium (catchweed bedstraw, Galium aparine); assay: Test C postemergence; type: in vivo; settings: Galium, post-emergence, 336 h, Postemergence, scale 0 to 100, read-out: Plant response rating, Galium
# How it was run: (§1)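 Visual ratings (0 none to 100 complete control) were made 13 to 15 days after treatment, relative to controls. Test chemicals, formulated in a non-phytotoxic solvent mixture with surfactant, were applied in the greenhouse preemergence to seeded loam-sand soil or postemergence to plants 2 to 18 cm tall.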
# [2] = tested on: wild oat (Avena fatua); assay: Test C postemergence; type: in vivo; settings: Avena fatua, post-emergence, Postemergence, scale 0 to 100, read-out: Plant response rating, Oat, Wild
# How it was run: as §1
# [3] = tested on: winter wheat (Triticum aestivum); assay: Test C postemergence; type: in vivo; settings: Triticum aestivum, post-emergence, 336 h, Postemergence, scale 0 to 100, read-out: Plant response rating, Wheat
# How it was run: as §1
# [4] = tested on: soybean (Glycine max); assay: Test C postemergence; type: in vivo; settings: Glycine max, post-emergence, Postemergence, scale 0 to 100, read-out: Plant response rating, Soybean
# How it was run: as §1
# [5] = tested on: barnyardgrass (Echinochloa crus-galli); assay: Test C postemergence; type: in vivo; settings: Echinochloa crus-galli, post-emergence, Postemergence, scale 0 to 100, read-out: Plant response rating, Barnyardgrass
# How it was run: as §1
# [6] = tested on: corn (Zea mays); assay: Test C postemergence; type: in vivo; settings: Zea mays, post-emergence, 336 h, Postemergence, scale 0 to 100
# How it was run: as §1
# [7] = tested on: Italian ryegrass (Lolium multiflorum); assay: Test C postemergence; type: in vivo; settings: Lolium multiflorum, post-emergence, 336 h, Postemergence, scale 0 to 100, read-out: Plant response rating, Ryegrass, Italian
# How it was run: as §1
# [8] = tested on: waterhemp (common waterhemp, Amaranthus rudis); assay: Test C postemergence; type: in vivo; settings: Amaranthus tuberculatus, post-emergence, Postemergence, scale 0 to 100, read-out: Plant response rating, Waterhemp
# How it was run: as §1
# [9] = tested on: large (Lg) crabgrass (Digitaria sanguinalis); assay: Test C postemergence; type: in vivo; settings: Digitaria sanguinalis, post-emergence, 336 h, Postemergence, scale 0 to 100, read-out: Plant response rating, Crabgrass, Large
# How it was run: as §1
# [10] = tested on: ragweed (common ragweed, Ambrosia elatior); assay: Test C postemergence; type: in vivo; settings: Ambrosia artemisiifolia, post-emergence, 336 h, Postemergence, scale 0 to 100, read-out: Plant response rating, Ragweed
# How it was run: as §1
# [11] = tested on: johnsongrass (Sorghum halepense); assay: Test C postemergence; type: in vivo; settings: Sorghum halepense, post-emergence, 336 h, Postemergence, scale 0 to 100, read-out: Plant response rating, Johnsongrass
# How it was run: as §1
# [12] = tested on: morningglory (Ipomoea coccinea); assay: Test C postemergence; type: in vivo; settings: Ipomoea, post-emergence, 336 h, Postemergence, scale 0 to 100, read-out: Plant response rating, Morningglory
# How it was run: as §1
# [13] = tested on: oilseed rape (Brassica napus); assay: Test C postemergence; type: in vivo; settings: Brassica napus, post-emergence, Postemergence, scale 0 to 100, read-out: Plant response rating, Oilseed Rape
# How it was run: as §1
# [14] = tested on: pigweed (Amaranthus retroflexus); assay: Test C postemergence; type: in vivo; settings: Amaranthus retroflexus, post-emergence, 336 h, Postemergence, scale 0 to 100, read-out: Plant response rating, Pigweed
# How it was run: as §1
# [15] = tested on: kochia (Kochia scoparia); assay: Test C postemergence; type: in vivo; settings: Bassia scoparia, post-emergence, Postemergence, scale 0 to 100, read-out: Plant response rating, Kochia
# How it was run: as §1
structure (smiles),measurement,setting,value
Fc1cnc(Oc2c(F)cccc2Oc2ncc(Cl)cn2)nc1 [Compound 23],melting point,,141 to 145 °C
same,pest or weed control at 31 g/ha,[1]; 31 g ai/ha,70%
same,pest or weed control at 62 g/ha,[1]; 62 g ai/ha,90%
same,pest or weed control at 125 g/ha,[1]; 125 g ai/ha,95%
same,pest or weed control at 250 g/ha,[1]; 250 g ai/ha,95%
same,pest or weed control at 31 g/ha,[2]; 31 g ai/ha,0%
same,pest or weed control at 62 g/ha,[2]; 62 g ai/ha,0%
same,pest or weed control at 125 g/ha,[2]; 125 g ai/ha,0%
same,pest or weed control at 250 g/ha,[2]; 250 g ai/ha,5%
same,plant injury at 31 g/ha,[3]; 31 g ai/ha,0%
same,plant injury at 62 g/ha,[3]; 62 g ai/ha,0%
same,plant injury at 125 g/ha,[3]; 125 g ai/ha,0%
same,plant injury at 250 g/ha,[3]; 250 g ai/ha,5%
same,plant injury at 31 g/ha,[4]; 31 g ai/ha,70%
same,plant injury at 62 g/ha,[4]; 62 g ai/ha,65%
same,plant injury at 125 g/ha,[4]; 125 g ai/ha,90%
same,plant injury at 250 g/ha,[4]; 250 g ai/ha,95%
same,pest or weed control at 31 g/ha,[5]; 31 g ai/ha,5%
same,pest or weed control at 62 g/ha,[5]; 62 g ai/ha,10%
same,pest or weed control at 125 g/ha,[5]; 125 g ai/ha,10%
same,pest or weed control at 250 g/ha,[5]; 250 g ai/ha,25%
same,"Corn plant response rating (crop injury, 0 = no effect, 100 = complete kill) at 31 g/ha",[6]; 31 g ai/ha,5%
same,"Corn plant response rating (crop injury, 0 = no effect, 100 = complete kill) at 62 g/ha",[6]; 62 g ai/ha,5%
same,"Corn plant response rating (crop injury, 0 = no effect, 100 = complete kill) at 125 g/ha",[6]; 125 g ai/ha,10%
same,"Corn plant response rating (crop injury, 0 = no effect, 100 = complete kill) at 250 g/ha",[6]; 250 g ai/ha,10%
same,pest or weed control at 31 g/ha,[7]; 31 g ai/ha,0%
same,pest or weed control at 62 g/ha,[7]; 62 g ai/ha,0%
same,pest or weed control at 125 g/ha,[7]; 125 g ai/ha,0%
same,pest or weed control at 250 g/ha,[7]; 250 g ai/ha,35%
same,pest or weed control at 31 g/ha,[8]; 31 g ai/ha,65%
same,pest or weed control at 62 g/ha,[8]; 62 g ai/ha,75%
same,pest or weed control at 125 g/ha,[8]; 125 g ai/ha,90%
same,pest or weed control at 250 g/ha,[8]; 250 g ai/ha,98%
same,pest or weed control at 31 g/ha,[9]; 31 g ai/ha,5%
same,pest or weed control at 62 g/ha,[9]; 62 g ai/ha,5%
same,pest or weed control at 125 g/ha,[9]; 125 g ai/ha,10%
same,pest or weed control at 250 g/ha,[9]; 250 g ai/ha,30%
same,pest or weed control at 31 g/ha,[10]; 31 g ai/ha,60%
same,pest or weed control at 62 g/ha,[10]; 62 g ai/ha,70%
same,pest or weed control at 125 g/ha,[10]; 125 g ai/ha,75%
same,pest or weed control at 250 g/ha,[10]; 250 g ai/ha,100%
same,pest or weed control at 31 g/ha,[11]; 31 g ai/ha,0%
same,pest or weed control at 62 g/ha,[11]; 62 g ai/ha,0%
same,pest or weed control at 125 g/ha,[11]; 125 g ai/ha,5%
same,pest or weed control at 250 g/ha,[11]; 250 g ai/ha,5%
same,pest or weed control at 31 g/ha,[12]; 31 g ai/ha,60%
same,pest or weed control at 62 g/ha,[12]; 62 g ai/ha,75%
same,pest or weed control at 125 g/ha,[12]; 125 g ai/ha,85%
same,pest or weed control at 250 g/ha,[12]; 250 g ai/ha,95%
same,plant injury at 31 g/ha,[13]; 31 g ai/ha,10%
same,plant injury at 62 g/ha,[13]; 62 g ai/ha,30%
same,plant injury at 125 g/ha,[13]; 125 g ai/ha,50%
same,plant injury at 250 g/ha,[13]; 250 g ai/ha,45%
same,pest or weed control at 31 g/ha,[14]; 31 g ai/ha,70%
same,pest or weed control at 62 g/ha,[14]; 62 g ai/ha,80%
same,pest or weed control at 125 g/ha,[14]; 125 g ai/ha,95%
same,pest or weed control at 250 g/ha,[14]; 250 g ai/ha,100%
same,pest or weed control at 31 g/ha,[15]; 31 g ai/ha,5%
same,pest or weed control at 62 g/ha,[15]; 62 g ai/ha,70%
same,pest or weed control at 125 g/ha,[15]; 125 g ai/ha,80%
same,pest or weed control at 250 g/ha,[15]; 250 g ai/ha,90%
